Test results: patent publication US20230256102A1, “COMPOSITES AND USES THEREOF” (YISSUM RESEARCH DEVELOPMENT COMPANY OF THE HEBREW …, priority 2019, published 2023)

Key:
A. citrulli M6 [1] = experiment: Bactericidal (killing) activity of LAE@Cu composites in vitro; type: cell-based, Acidovorax citrulli; settings: LAE at 1.25 ppm, 30 min
Description: Assessment of bactericidal activity of LAE @Cu composites in vitro: Bactericidal activity of LAE@Cu composites was tested by adding the composites to 50 ml-PBS suspensions containing ˜10^7 colony forming units (CFU)/ml of A. citrulli M6. The suspensions were incubated at 30° C. with shaking for 30 min. Then, the concentrations of viable bacteria were determined following plating of serial dilutions on nutrient agar (NA, Difco) plates.
Bacterial killing assay: The bactericidal (killing) activity of LAE@[Cu] composites at a concentration of 25 ppm (1.25 mg in 50 ml), were tested in PBS containing ˜107 (CFU)/mL. The suspensions were incubated at 30° C. with shaking for 30 min. Then, the viable bacteria were determined following plating of serial dilutions on NA (nutrient agar) plates. Controls included @[Cu], the composite-like compound without LAE, and the commercial bactericide, Kocide®, at the same concentrations.

A. citrulli M6 [2] = experiment: In planta assay, A. citrulli-melon pathosystem; type: in vivo, melon (cv. AN-305); settings: 200 ppm @[Cu], 10 ppm LAE; 5 days after inoculation
Text: Assessment of the ability of the LAE @Cu composites to reduce disease: To assess the potential of LAE@Cu composites for management of bacterial plant diseases, we carried out experiments using the A. citrulli-melon pathosystem. In these experiments, the foliage of three-week-old plants of melon (cv. AN-305; Origene Seeds) were sprayed with LAE1.0@Cu composites at a concentration of 200 ppm. Additional treatments included spraying with 200 ppm of @Cu, 10 ppm of LAE (corresponding to the concentration of LAE in 200 ppm LAE×1.0@Cu) and the commercial bactericide Kocide, which was applied at the recommended concentration for management of the disease (2 mg/ml). As controls, foliage were sprayed with double distilled water (DDW). […] Disease severity of inoculated leaves was determined 5 days after inoculation, using the following scale: 0, no symptoms; 1, few minor lesions; 2, few small necrotic spots; 3, increased necrotic spots in less than 25% of the leaf area; 4, increased necrotic spots in 25 to 50% of the leaf area; and 5, increased necrotic spots in more than 50% of the leaf area and dead leaf. The data were statistically analyzed by one-way analysis of variance (ANOVA) and Tukey's honest significant difference (HSD) test.
In-planta assay: Melon plants (cv. AN-305; Origene Seeds) were grown in a growth chamber at 28° C. […] Disease severity was determined 5 days after inoculation.

**Q.** `CCCCCCCCCCCC(=O)N[C@@H](CCCN=C(N)N)C(=O)OCC` [LAE, Lauroyl arginate ethyl ester] was tested. Which “reduction of the A. citrulli population” value (A. citrulli M6 [1]) did it give?
**A.** Its value is 2 orders of magnitude.

**Q.** What about the “reduction of disease severity as compared with non-treated controls” value (A. citrulli M6 [2]) of the same compound?
**A.** The value was 29%.
